In ChEMBL document CHEMBL1201862, “PubChem BioAssay data set” (2004):
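Tested at 5 concentrations; 48 h exposure; 96-well plates; endpoints linearly interpolated, else capped at highest concentration. The concentration for 50% growth inhibition is given as GI50.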 Active and inactive are the calls of the source. Cut-off read from the data, not from the text of the source: active = GI50 up to about 1.1 µM and inactive = higher.

Experiments:
Assay in all cases: NCI-60 cell line screen, 48 h
NCI-H226 = system: NCI-H226
A498 = system: A498
M14 = system: M14
UACC-62 = system: UACC-62
HT-29 = system: HT-29
SK-MEL-28 = system: SK-MEL-28
UACC-257 = system: UACC-257
HCT-116 = system: HCT-116
SNB-75 = system: SNB-75
LOX IMVI = system: LOX IMVI
NCI-H23 = system: NCI-H23
RXF 393 = system: RXF 393
HL-60 = system: HL-60
786-0 = system: 786-0
OVCAR-8 = system: OVCAR-8
SW-620 = system: SW-620
HCC 2998 = system: HCC 2998

Measured: GI50

CCC1CN2CCc3cc(OC)c(OC)cc3C2CC1CC1c2cc(OC)c(OC)cc2CCN1C(=O)C1CCCN1C(=O)OCc1ccccc1 (stereo not given)
inactive: NCI-H226 16.1 µM | A498 16.3 µM | M14 17.1 µM | UACC-62 16.1 µM | HT-29 14.1 µM | SK-MEL-28 16.9 µM | UACC-257 16.9 µM | HCT-116 13.1 µM | SNB-75 14.4 µM | LOX IMVI 15 µM | NCI-H23 16.3 µM | RXF 393 10.4 µM | HL-60 13.1 µM | 786-0 19.4 µM | OVCAR-8 17.1 µM | SW-620 14.8 µM | HCC 2998 16.3 µM

CC(O)c1ccc(C(O)/C(=N\NC(=O)c2ccncc2)c2nc3ccc([N+](=O)[O-])cc3nc2O)cc1 (stereo not given)
inactive: NCI-H226 > 100 µM | M14 > 100 µM | UACC-62 59.2 µM | HT-29 96.2 µM | SK-MEL-28 > 100 µM | UACC-257 > 100 µM | HCT-116 > 100 µM | SNB-75 > 100 µM | LOX IMVI 30 µM | NCI-H23 > 100 µM | RXF 393 > 100 µM | HL-60 50.5 µM | 786-0 > 100 µM | OVCAR-8 > 100 µM | SW-620 > 100 µM | HCC 2998 75.2 µM

CCOc1ccccc1NC(=O)C(=O)CC(=O)c1sc(Nc2nnc(-c3ccc(Cl)c(Cl)c3)o2)nc1C
inactive: NCI-H226 > 100 µM | A498 > 100 µM | M14 > 100 µM | UACC-62 > 100 µM | HT-29 > 100 µM | SK-MEL-28 > 100 µM | UACC-257 98.9 µM | HCT-116 > 100 µM | SNB-75 > 100 µM | LOX IMVI 31.8 µM | NCI-H23 > 100 µM | RXF 393 > 100 µM | HL-60 > 100 µM | 786-0 > 100 µM | OVCAR-8 > 100 µM | SW-620 33.5 µM | HCC 2998 > 100 µM

O=C1c2ccccc2C2(O)c3cc4ccccc4cc3OC12O (stereo not given)
inactive: NCI-H226 42.4 µM | A498 > 100 µM | M14 56.9 µM | UACC-62 47.2 µM | HT-29 > 100 µM | SK-MEL-28 59.3 µM | UACC-257 30 µM | HCT-116 69 µM | SNB-75 49.3 µM | LOX IMVI 68.5 µM | NCI-H23 55.6 µM | RXF 393 29.2 µM | 786-0 > 100 µM | OVCAR-8 58.1 µM | SW-620 > 100 µM | HCC 2998 54 µM

O=C(NCc1ccncc1)C1COc2cc(-c3cc(=O)c4ccccc4o3)ccc2O1 (stereo not given)
inactive: M14 > 100 µM | UACC-62 > 100 µM | HT-29 > 100 µM | SK-MEL-28 > 100 µM | UACC-257 > 100 µM | HCT-116 > 100 µM | SNB-75 38.1 µM | LOX IMVI > 100 µM | NCI-H23 > 100 µM | RXF 393 > 100 µM | HL-60 > 100 µM | 786-0 > 100 µM | OVCAR-8 > 100 µM | SW-620 > 100 µM | HCC 2998 > 100 µM

CC(=O)NN1C(=O)C(Cc2ccccc2)c2ccccc21 (stereo not given)
inactive: NCI-H226 > 100 µM | A498 > 100 µM | M14 > 100 µM | UACC-62 > 100 µM | HT-29 > 100 µM | SK-MEL-28 > 100 µM | UACC-257 > 100 µM | HCT-116 > 100 µM | SNB-75 > 100 µM | LOX IMVI > 100 µM | NCI-H23 > 100 µM | 786-0 > 100 µM | OVCAR-8 > 100 µM | SW-620 > 100 µM | HCC 2998 > 100 µM

COc1ccc(OC)c(NC(=O)C(=O)CC(=O)c2sc(-n3nc(-c4ccccc4)cc3-c3ccccc3)nc2C)c1
inactive: NCI-H226 > 100 µM | A498 > 100 µM | M14 > 100 µM | UACC-62 > 100 µM | HT-29 > 100 µM | UACC-257 > 100 µM | HCT-116 > 100 µM | SNB-75 > 100 µM | LOX IMVI > 100 µM | NCI-H23 > 100 µM | RXF 393 > 100 µM | HL-60 > 100 µM | 786-0 > 100 µM | OVCAR-8 > 100 µM | SW-620 > 100 µM | HCC 2998 > 100 µM

COC1(OC)CC2C(=O)N(Cc3ccccc3)C1C=C2S(=O)(=O)c1ccccc1 (stereo not given)
inactive: NCI-H226 27.9 µM | A498 20 µM | M14 16.1 µM | UACC-62 16.7 µM | HT-29 18.5 µM | SK-MEL-28 17.5 µM | UACC-257 16.9 µM | HCT-116 13.8 µM | SNB-75 28.8 µM | LOX IMVI 13.4 µM | NCI-H23 18 µM | RXF 393 12.7 µM | HL-60 11.7 µM | 786-0 19.7 µM | OVCAR-8 17.9 µM | SW-620 15.2 µM | HCC 2998 19.5 µM

CC1(C2COC(=O)C2)SCCCS1 (stereo not given)
inactive: NCI-H226 > 100 µM | M14 > 100 µM | UACC-62 > 100 µM | HT-29 > 100 µM | SK-MEL-28 > 100 µM | UACC-257 > 100 µM | HCT-116 > 100 µM | SNB-75 > 100 µM | LOX IMVI > 100 µM | NCI-H23 > 100 µM | RXF 393 > 100 µM | HL-60 > 100 µM | 786-0 > 100 µM | OVCAR-8 > 100 µM | SW-620 > 100 µM | HCC 2998 > 100 µM

COS(=O)c1cc(Cl)cc(Cl)c1OC(=O)CSSCC(=O)Oc1c(Cl)cc(Cl)cc1S(=O)OC (stereo not given)
inactive: A498 15.5 µM | M14 18.8 µM | UACC-62 6.97 µM | HT-29 30.4 µM | SK-MEL-28 12.4 µM | UACC-257 23.2 µM | SNB-75 24.7 µM | LOX IMVI 16 µM | NCI-H23 11.2 µM | RXF 393 15.3 µM | HL-60 22.4 µM | 786-0 22.4 µM | OVCAR-8 20.5 µM | SW-620 28.4 µM | HCC 2998 21.6 µM

N#C/C(=C\c1ccccc1F)C(=O)c1ccccc1
inactive: A498 > 100 µM | M14 > 100 µM | UACC-62 > 100 µM | HT-29 > 100 µM | SK-MEL-28 > 100 µM | UACC-257 > 100 µM | HCT-116 > 100 µM | LOX IMVI > 100 µM | NCI-H23 > 100 µM | HL-60 66.7 µM | 786-0 > 100 µM | OVCAR-8 > 100 µM | SW-620 > 100 µM | HCC 2998 > 100 µM

CCCCCCCCCCCC(=O)OCCOCCOCCOCCOCCOCc1ccc(OC)cc1
inactive: NCI-H226 > 100 µM | A498 > 100 µM | M14 > 100 µM | UACC-62 > 100 µM | HT-29 > 100 µM | SK-MEL-28 > 100 µM | UACC-257 > 100 µM | HCT-116 > 100 µM | SNB-75 > 100 µM | LOX IMVI > 100 µM | NCI-H23 > 100 µM | RXF 393 > 100 µM | HL-60 14.8 µM | 786-0 > 100 µM | OVCAR-8 > 100 µM | SW-620 > 100 µM | HCC 2998 > 100 µM

CCSc1nc(-c2ccc(OC)cc2)c(C#N)c(=O)n1C1OCC(OC(C)=O)C(OC(C)=O)C1OC(C)=O (stereo not given)
inactive: NCI-H226 > 100 µM | A498 > 100 µM | M14 > 100 µM | UACC-62 > 100 µM | HT-29 > 100 µM | SK-MEL-28 > 100 µM | UACC-257 > 100 µM | HCT-116 > 100 µM | SNB-75 65.6 µM | NCI-H23 94.6 µM | RXF 393 > 100 µM | 786-0 > 100 µM | SW-620 > 100 µM | HCC 2998 > 100 µM

CC(C)(C)C(=O)OCC(COC(=O)C(C)(C)C)[N+](=O)[O-]
inactive: NCI-H226 > 100 µM | M14 > 100 µM | UACC-62 47.6 µM | HT-29 > 100 µM | SK-MEL-28 > 100 µM | UACC-257 > 100 µM | HCT-116 > 100 µM | SNB-75 > 100 µM | LOX IMVI > 100 µM | NCI-H23 > 100 µM | RXF 393 > 100 µM | HL-60 27.4 µM | 786-0 > 100 µM | OVCAR-8 > 100 µM | SW-620 > 100 µM | HCC 2998 > 100 µM

CCSC(SCC)c1cc2c(cc1Br)OCO2
inactive: NCI-H226 24.2 µM | A498 25.8 µM | M14 16.9 µM | UACC-62 28.5 µM | HT-29 16.8 µM | SK-MEL-28 33.2 µM | HCT-116 18.7 µM | SNB-75 18.8 µM | LOX IMVI 16.2 µM | NCI-H23 26.7 µM | RXF 393 26.7 µM | HL-60 10.1 µM | 786-0 33 µM | OVCAR-8 31.3 µM | SW-620 10.6 µM | HCC 2998 17.8 µM

CC(=O)OCC1OC(n2c(-c3ccc(N)cc3)cc(-c3ccco3)c(C#N)c2=O)C(OC(C)=O)C(OC(C)=O)C1OC(C)=O (stereo not given)
inactive: A498 > 50 µM | M14 > 50 µM | UACC-62 37.2 µM | HT-29 > 50 µM | SK-MEL-28 > 50 µM | UACC-257 > 50 µM | HCT-116 2.3 µM | SNB-75 > 50 µM | LOX IMVI 8.04 µM | NCI-H23 26 µM | RXF 393 > 50 µM | 786-0 14.2 µM | OVCAR-8 5.87 µM | SW-620 > 50 µM | HCC 2998 > 50 µM

ClC1=C(Cl)C(Cl)(Cl)c2c3c(c4c(c21)C(Cl)(Cl)C(Cl)=C4Cl)C(Cl)(Cl)C(Cl)=C3Cl
inactive: NCI-H226 > 100 µM | M14 > 100 µM | HT-29 > 100 µM | SK-MEL-28 > 100 µM | UACC-257 > 100 µM | HCT-116 > 100 µM | LOX IMVI > 100 µM | NCI-H23 > 100 µM | HL-60 > 100 µM | 786-0 > 100 µM | OVCAR-8 > 100 µM | SW-620 > 100 µM | HCC 2998 > 100 µM
